Counter-ions that a name gives are not always drawn.

Among the data in US20070072840A1, “POLYMORPHIC FORMS OF QUETIAPINE” (priority 2005, published 2007) are hygroscopicity, solubility in water and stability values, retold here.

For data set [1] the following is noted: result in words, conditions not given.
For data set [2] the following is noted: as compared to any other crystalline form.
The conditions of data set [3]: result in words, conditions not given. The source holds these as a separate data set.

Turning to `OCCOCCN1CCN(C2=Nc3ccccc3Sc3ccccc32)CC1` [amorphous quetiapine hydrochloride, Quetiapine Hydrochloride], in data set [1], the hygroscopicity entry is reported as “non-hygroscopic”. Besides, in data set [2], the solubility in water entry is on record as “more soluble in water”. In addition, in data set [3], the stability result is on record as “stable”.
